From the kinase profiling compilation of Christmann-Franck et al. (2016)

Columns and labels:
Assay in all cases: Caliper, Mobility shift assay off-chip
[1] = test system: ABL1 (human), P00519 [Q252H]; conditions: compound 0.1 µM
[2] = target: ABL2 (human) (UniProt P42684); conditions: compound 0.1 µM
[3] = target: AKT1 (human) (UniProt P31749)
[4] = target: AKT2 (human) (UniProt P31751)
[5] = target: AKT3 (human) (UniProt Q9Y243); conditions: compound 0.1 µM
[6] = target: AURKB (human) (UniProt Q96GD4); conditions: compound 0.1 µM
[7] = target: BMX (human) (UniProt P51813)
[8] = target: CAMK2D (human) (UniProt Q13557)
[9] = target: CAMK2G (human) (UniProt Q13555); conditions: compound 0.1 µM
[10] = target: CDK2 (human) (UniProt P24941)
[11] = target: EGFR (human) (UniProt P00533); conditions: compound 0.1 µM
[12] = target: FER (human) (UniProt P16591); conditions: compound 0.1 µM
[13] = test system: FLT3 (human), P36888 [D835Y]; conditions: compound 0.1 µM
[14] = target: IKBKB (human) (UniProt O14920); conditions: compound 0.1 µM
[15] = target: IRAK4 (human) (UniProt Q9NWZ3)
[16] = target: LYN (human) (UniProt P07948)
[17] = target: MAPK12 (human) (UniProt P53778)
[18] = target: MAPKAPK2 (human) (UniProt P49137)
[19] = target: MAPKAPK3 (human) (UniProt Q16644); conditions: compound 0.1 µM
[20] = target: NEK2 (human) (UniProt P51955)
[21] = target: PAK2 (human) (UniProt Q13177)
[22] = target: PIM1 (human) (UniProt P11309)
[23] = target: PRKCA (human) (UniProt P17252)
[24] = target: PRKCB1 (human) (UniProt P05771)
[25] = target: PRKCB2 (human) (UniProt P05771)
[26] = target: PRKCD (human) (UniProt Q05655)
[27] = target: PRKCE (human) (UniProt Q02156)
[28] = target: PRKD3 (human) (UniProt O94806)
[29] = target: RPS6KA1 KD1 KD2 (human) (UniProt Q15418)
[30] = target: RPS6KA2 KD1 KD2 (human) (UniProt Q15349)
[31] = target: SGK2 (human) (UniProt Q9HBY8)
[32] = target: SRC (human) (UniProt P12931)
[33] = target: STK3 (human) (UniProt Q13188)
[34] = target: SYK (human) (UniProt P43405)

Chain of PRKD3 (human) (O94806 whole entry, looked up): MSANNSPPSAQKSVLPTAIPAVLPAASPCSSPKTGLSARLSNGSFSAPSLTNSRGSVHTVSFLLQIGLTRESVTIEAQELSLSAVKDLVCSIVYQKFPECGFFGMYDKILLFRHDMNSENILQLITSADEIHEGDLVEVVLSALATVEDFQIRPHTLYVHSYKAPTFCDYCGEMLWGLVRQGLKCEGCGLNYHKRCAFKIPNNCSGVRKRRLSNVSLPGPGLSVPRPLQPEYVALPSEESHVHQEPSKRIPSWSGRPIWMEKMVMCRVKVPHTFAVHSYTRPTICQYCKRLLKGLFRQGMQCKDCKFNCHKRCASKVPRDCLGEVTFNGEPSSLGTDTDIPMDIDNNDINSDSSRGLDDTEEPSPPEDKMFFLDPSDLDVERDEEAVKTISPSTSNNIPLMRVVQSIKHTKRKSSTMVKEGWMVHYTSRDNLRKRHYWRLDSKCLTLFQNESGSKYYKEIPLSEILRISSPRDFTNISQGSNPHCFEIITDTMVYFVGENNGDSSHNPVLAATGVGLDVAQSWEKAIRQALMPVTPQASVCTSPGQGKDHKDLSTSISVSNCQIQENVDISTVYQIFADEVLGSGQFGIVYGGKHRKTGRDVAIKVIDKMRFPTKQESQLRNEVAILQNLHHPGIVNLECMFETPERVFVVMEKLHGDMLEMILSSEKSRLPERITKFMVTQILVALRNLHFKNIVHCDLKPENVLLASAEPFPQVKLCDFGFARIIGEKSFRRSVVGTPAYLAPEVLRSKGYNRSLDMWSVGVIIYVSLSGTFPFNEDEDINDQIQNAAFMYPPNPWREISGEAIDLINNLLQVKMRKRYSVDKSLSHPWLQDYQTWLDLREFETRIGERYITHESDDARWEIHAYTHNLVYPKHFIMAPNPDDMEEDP
Chain of RPS6KA2 KD1 KD2 (human) (Q15349 whole entry, looked up): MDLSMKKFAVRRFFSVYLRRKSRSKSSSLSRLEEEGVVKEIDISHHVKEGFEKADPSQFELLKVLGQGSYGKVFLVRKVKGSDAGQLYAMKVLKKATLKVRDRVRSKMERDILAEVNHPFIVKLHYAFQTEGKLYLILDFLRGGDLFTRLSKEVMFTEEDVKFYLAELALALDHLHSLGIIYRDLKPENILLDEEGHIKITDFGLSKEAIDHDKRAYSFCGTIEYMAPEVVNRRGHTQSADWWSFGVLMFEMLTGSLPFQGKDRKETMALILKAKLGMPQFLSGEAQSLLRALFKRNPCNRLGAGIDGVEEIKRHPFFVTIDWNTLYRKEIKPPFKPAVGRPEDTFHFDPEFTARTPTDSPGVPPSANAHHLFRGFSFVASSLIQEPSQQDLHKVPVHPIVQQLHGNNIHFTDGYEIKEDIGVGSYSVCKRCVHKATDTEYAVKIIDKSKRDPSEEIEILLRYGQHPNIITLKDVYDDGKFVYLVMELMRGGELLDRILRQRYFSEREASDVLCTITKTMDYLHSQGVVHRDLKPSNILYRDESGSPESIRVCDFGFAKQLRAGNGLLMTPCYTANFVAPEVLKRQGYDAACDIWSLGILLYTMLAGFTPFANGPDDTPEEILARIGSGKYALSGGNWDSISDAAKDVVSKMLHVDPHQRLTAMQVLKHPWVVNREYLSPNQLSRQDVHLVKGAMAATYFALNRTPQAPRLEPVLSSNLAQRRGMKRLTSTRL
Chain of BMX (human) (P51813 whole entry, looked up): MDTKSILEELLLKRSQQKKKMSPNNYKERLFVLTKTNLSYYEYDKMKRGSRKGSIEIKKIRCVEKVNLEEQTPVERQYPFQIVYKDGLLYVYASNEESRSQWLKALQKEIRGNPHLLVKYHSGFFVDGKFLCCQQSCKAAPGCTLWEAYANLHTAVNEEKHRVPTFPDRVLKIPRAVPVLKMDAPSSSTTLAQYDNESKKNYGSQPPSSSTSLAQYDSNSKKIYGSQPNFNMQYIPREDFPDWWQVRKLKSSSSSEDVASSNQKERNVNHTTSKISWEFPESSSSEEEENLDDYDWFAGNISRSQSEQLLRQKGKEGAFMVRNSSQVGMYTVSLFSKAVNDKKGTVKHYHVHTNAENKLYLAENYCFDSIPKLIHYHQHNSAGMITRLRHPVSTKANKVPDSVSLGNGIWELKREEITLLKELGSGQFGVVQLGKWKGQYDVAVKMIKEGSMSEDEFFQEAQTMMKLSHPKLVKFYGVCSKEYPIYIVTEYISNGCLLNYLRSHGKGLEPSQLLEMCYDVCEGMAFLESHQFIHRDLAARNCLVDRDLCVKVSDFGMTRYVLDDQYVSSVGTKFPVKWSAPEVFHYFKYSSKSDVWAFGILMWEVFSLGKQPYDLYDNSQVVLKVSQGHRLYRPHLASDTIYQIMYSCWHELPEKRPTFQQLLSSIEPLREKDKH
Chain of PRKCE (human) (Q02156 whole entry, looked up): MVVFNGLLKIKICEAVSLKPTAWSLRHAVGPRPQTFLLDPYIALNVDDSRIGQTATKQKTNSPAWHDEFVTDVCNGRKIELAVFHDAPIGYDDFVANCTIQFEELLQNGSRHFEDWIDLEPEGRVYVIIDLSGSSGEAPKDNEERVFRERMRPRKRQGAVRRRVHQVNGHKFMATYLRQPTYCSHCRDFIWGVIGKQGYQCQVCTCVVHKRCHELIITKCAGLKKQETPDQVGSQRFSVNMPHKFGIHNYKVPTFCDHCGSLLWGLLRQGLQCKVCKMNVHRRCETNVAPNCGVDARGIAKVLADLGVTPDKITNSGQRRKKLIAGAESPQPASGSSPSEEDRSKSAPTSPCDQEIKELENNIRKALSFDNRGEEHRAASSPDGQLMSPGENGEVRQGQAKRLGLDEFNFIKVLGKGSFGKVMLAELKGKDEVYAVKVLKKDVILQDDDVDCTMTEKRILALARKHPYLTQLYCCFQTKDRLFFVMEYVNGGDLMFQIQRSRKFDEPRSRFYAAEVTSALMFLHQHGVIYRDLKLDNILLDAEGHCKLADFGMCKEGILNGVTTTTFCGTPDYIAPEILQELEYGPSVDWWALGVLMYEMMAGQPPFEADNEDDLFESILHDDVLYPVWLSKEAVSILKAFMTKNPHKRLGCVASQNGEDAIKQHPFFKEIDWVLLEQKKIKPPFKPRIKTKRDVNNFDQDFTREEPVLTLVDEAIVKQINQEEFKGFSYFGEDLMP
Chain of LYN (human) (P07948 whole entry, looked up): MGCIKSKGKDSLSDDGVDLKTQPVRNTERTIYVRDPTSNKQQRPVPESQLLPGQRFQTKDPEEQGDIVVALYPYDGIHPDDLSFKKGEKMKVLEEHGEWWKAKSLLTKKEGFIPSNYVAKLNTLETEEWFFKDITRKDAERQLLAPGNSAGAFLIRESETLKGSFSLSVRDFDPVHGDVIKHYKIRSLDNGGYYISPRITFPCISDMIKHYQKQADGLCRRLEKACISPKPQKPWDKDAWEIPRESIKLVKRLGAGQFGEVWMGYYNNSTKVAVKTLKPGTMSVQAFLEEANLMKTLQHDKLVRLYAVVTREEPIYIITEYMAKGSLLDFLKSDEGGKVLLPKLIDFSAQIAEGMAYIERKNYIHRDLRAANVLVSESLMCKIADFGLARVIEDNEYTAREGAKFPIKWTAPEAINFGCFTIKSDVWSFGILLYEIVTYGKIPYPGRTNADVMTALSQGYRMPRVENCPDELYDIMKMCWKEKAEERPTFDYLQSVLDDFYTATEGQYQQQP
Chain of NEK2 (human) (P51955 whole entry, looked up): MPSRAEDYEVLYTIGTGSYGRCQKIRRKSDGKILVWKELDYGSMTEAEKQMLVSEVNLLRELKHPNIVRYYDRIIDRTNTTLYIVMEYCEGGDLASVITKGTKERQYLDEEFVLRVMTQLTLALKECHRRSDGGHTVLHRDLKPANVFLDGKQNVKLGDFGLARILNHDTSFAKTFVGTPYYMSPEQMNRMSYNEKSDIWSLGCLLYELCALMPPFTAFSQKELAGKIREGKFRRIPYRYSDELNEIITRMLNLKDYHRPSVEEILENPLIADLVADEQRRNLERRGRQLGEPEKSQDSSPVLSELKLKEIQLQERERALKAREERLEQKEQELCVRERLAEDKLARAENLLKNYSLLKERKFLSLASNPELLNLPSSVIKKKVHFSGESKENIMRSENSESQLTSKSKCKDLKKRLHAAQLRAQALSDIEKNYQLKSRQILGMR
Chain of SGK2 (human) (Q9HBY8 whole entry, looked up): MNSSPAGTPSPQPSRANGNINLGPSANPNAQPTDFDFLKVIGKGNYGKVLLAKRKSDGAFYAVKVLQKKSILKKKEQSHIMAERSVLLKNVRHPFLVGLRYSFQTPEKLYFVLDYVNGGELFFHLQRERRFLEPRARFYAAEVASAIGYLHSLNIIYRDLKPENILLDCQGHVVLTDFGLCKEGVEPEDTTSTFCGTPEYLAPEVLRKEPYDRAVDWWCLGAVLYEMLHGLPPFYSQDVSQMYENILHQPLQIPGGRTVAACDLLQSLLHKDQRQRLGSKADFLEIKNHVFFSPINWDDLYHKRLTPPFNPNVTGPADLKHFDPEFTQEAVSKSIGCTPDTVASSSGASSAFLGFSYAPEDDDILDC

Cn1cc(-c2cnc3ccc4ccc(CS(=O)(=O)NCC5CCCCN5)cc4c(=O)c3c2)cn1 (stereo not drawn)
inhibition [1]: 1.4% | inhibition [2]: 3.3% | inhibition ([3]; compound 0.1 µM): 12.6% | inhibition ([3]; compound 1.0 µM): 5.2% | inhibition ([4]; compound 0.1 µM): 0.7% | inhibition ([4]; compound 1.0 µM): 1.9% | inhibition [5]: 2% | inhibition [6]: 34.7% | inhibition ([7]; compound 0.1 µM): -17.3% | inhibition ([7]; compound 1.0 µM): -2.8% | inhibition ([8]; compound 0.1 µM): 32% | inhibition ([8]; compound 1.0 µM): 15.1% | inhibition [9]: -7.4% | inhibition ([10]; compound 0.1 µM): 1.9% | inhibition ([10]; compound 1.0 µM): 1.4% | inhibition [11]: -4.8% | inhibition [12]: 1.2% | inhibition [13]: -0.3% | inhibition [14]: 1.9% | inhibition ([15]; compound 0.1 µM): 31.2% | inhibition ([15]; compound 1.0 µM): 40.2% | inhibition ([16]; compound 0.1 µM): 17.3% | inhibition ([16]; compound 1.0 µM): 9.6% | inhibition ([17]; compound 0.1 µM): -3.3% | inhibition ([17]; compound 1.0 µM): -11.8% | inhibition ([18]; compound 0.1 µM): 7.6% | inhibition ([18]; compound 1.0 µM): 1.3% | inhibition [19]: -2.7% | inhibition ([20]; compound 0.1 µM): 2.7% | inhibition ([20]; compound 1.0 µM): -2.2% | inhibition ([21]; compound 0.1 µM): -7.9% | inhibition ([21]; compound 1.0 µM): 0.9% | inhibition ([22]; compound 0.1 µM): -4.7% | inhibition ([22]; compound 1.0 µM): -8.3% | inhibition ([23]; compound 0.1 µM): -28% | inhibition ([23]; compound 1.0 µM): -0.1% | inhibition ([24]; compound 0.1 µM): -20.8% | inhibition ([24]; compound 1.0 µM): -18.2% | inhibition ([25]; compound 0.1 µM): -4.3% | inhibition ([25]; compound 1.0 µM): -2.5% | inhibition ([26]; compound 0.1 µM): -38.2% | inhibition ([26]; compound 1.0 µM): -8.2% | inhibition ([27]; compound 0.1 µM): -9.1% | inhibition ([27]; compound 1.0 µM): -5.1% | inhibition ([28]; compound 0.1 µM): -11.5% | inhibition ([28]; compound 1.0 µM): -4.4% | inhibition ([29]; compound 0.1 µM): 8.6% | inhibition ([29]; compound 1.0 µM): 0% | inhibition ([30]; compound 0.1 µM): -1.6% | inhibition ([30]; compound 1.0 µM): -5.3% | inhibition ([31]; compound 0.1 µM): -9% | inhibition ([31]; compound 1.0 µM): -11.8% | inhibition ([32]; compound 0.1 µM): 3.2% | inhibition ([32]; compound 1.0 µM): 2.1% | inhibition ([33]; compound 0.1 µM): -0.1% | inhibition ([33]; compound 1.0 µM): -2.7% | inhibition ([34]; compound 0.1 µM): 13.6% | inhibition ([34]; compound 1.0 µM): 0.3%
